Laboratory results: ChEMBL document CHEMBL1136135, “Synthesis of an amphiphilic tetraantennary mannosyl conjugate and incorporation into liposome carriers” (Bioorg Med Chem Lett, 2003)
“And” between values parts separate entries of the source, which are not always exact repeats. Identical values can stand only once.

Legend:
Liposome [1] = experiment: Mannose concentrations required for 50% turbidity reduction n the Surface of Liposomes; format: functional, subcellular
Liposome [2] = experiment: Mannose concentrations required for 50% turbidity reduction on the Surface of Liposomes; format: functional, subcellular

Row | IC50 (Liposome [1]) | IC50 (Liposome [2]) | SMILES
1 | 20 mM and 30 mM and 50 mM | – | CCCCCCCC/C=C\CCCCCCCCOCC(COCCOCCOCCOCCNC(=O)C(CCCCNC(=O)C(CCCCNC(=O)COCCOCCS[C@@H]1O[C@H](CO)[C@@H](O)[C@@H](O)[C@@H]1O)NC(=O)COCCOCCS[C@@H]1O[C@H](CO)[C@@H](O)[C@@H](O)[C@@H]1O)NC(=O)C(CCCCNC(=O)COCCOCCS[C@@H]1O[C@H](CO)[C@@H](O)[C@@H](O)[C@@H]1O)NC(=O)COCCOCCS[C@@H]1O[C@H](CO)[C@@H](O)[C@@H](O)[C@@H]1O)OCCCCCCCC/C=C\CCCCCCCC (some centres not stated)
2 | – | 2 mM and 4 mM and 5 mM | CCCCCCCC/C=C\CCCCCCCCOCC(COCCOCCOCCOCCNC(=O)CCS[C@H]1OC(CO)[C@@H](O)[C@@H](O)C1O)OCCCCCCCC/C=C\CCCCCCCC (some centres not stated)
